Entries after “also recorded” stand apart in the source; their conditions may differ.
Tests used:
hippocampal cultures [1] = test: firing rate homeostasis: baclofen perturbation in MEA cultures; format: cell-based
Method: The stable reduction in MFR induced by teriflunomide could have been the result of either impairment of homeostatic compensation mechanisms, or a change in a firing set-point value. A perturbation of firing rate in vivo results in re-normalization to its set-point level 2 days following perturbation through homeostatic mechanisms (Hengen et al., 2013). […] In order to determine the role DHODH inhibition in homeostatic process, we added 10 μM baclofen following 12 hr incubation with teriflunomide (FIG. 7).

hippocampal cultures [2] = conditions: returns to baseline level after 2 days (Slomowitz et al., 2015); cited from earlier work
AD mouse models = AD mouse models (Sanchez et al., 2012); cited from earlier work
hippocampus = conditions: low-dose, MCI patients (Bakker et al., 2012); cited from earlier work
hippocampal neurons [3] = test: mEPSC recording (excitatory quantal events); format: cell-based
Method: In this experiment we tested whether DHODH inhibition affects excitatory quantal events, by recording mEPSCs from hippocampal neurons under control conditions and 2 days following teriflunomide application (FIG. 5). As found, chronic teriflunomide incubation triggered a significant decrease of ˜26% in mEPSC amplitude (FIGS. 5A-5B).

hippocampal neurons [4] = test: inhibition-excitation (I/E) ratio from sEPSCs and sIPSCs (integrated conductances GE, GI); format: cell-based
Text: The inhibition-excitation (I/E) ratio constitutes an important factor in firing rate homeostasis, and in pathology of epilepsy. To assess the effects of DHODH inhibition on the I/E ratio, the spontaneous excitatory and inhibitory postsynaptic currents (sEPSCs, sIPSCs, respectively) were isolated at the same cell based on the reversal potentials of α-amino-3-hydroxy-5-methyl-4-isoxazolepropionic acid receptor (AMPAR)-mediated excitatory and GABAAR-mediated inhibitory currents, and the integrated excitatory (FIG. 4A) and inhibitory conductance's (GE, GI, respectively) were calculated (FIGS. 4B-4D).

[5] = test system: CA3-CA1 synaptic transmission; test: fEPSP recording in acute hippocampal slices
Text: Having established an essential role of DHODH activity in regulating MFR and E/I balance in hippocampal cultures, we asked whether acute DHODH inhibition modulates basal synaptic transmission in a more intact preparation—acute hippocampal slices. We evoked electrical stimulation in CA3 axons, comprising the Schaffer Collateral (SC) pathway of the hippocampus, and recorded the extracellular field excitatory postsynaptic potentials (fEPSP) in the stratum radiatum. We estimated the effect of teriflunomide (50 μM) on basal CA3-CA1 synaptic transmission evoked by low frequency stimulation of 0.1 Hz.
Next, we examined how DHODH inhibition affects short-term synaptic plasticity evoked by high-frequency spike bursts. This type of plasticity plays an important role in working memory function.

hippocampal neurons [6] = test: intrinsic excitability: action potentials evoked by somatic current injections (F-I curves); format: cell-based; conditions: teriflunomide incubation
Method: Modulation of intrinsic excitability is an important facet of neuronal adaptation. In this experiment we elicited action potentials (APs) in response to increasing somatic current injections ranging from 0 to +500 pA (F-I curves) in the presence of postsynaptic receptor blockers (FIGS. 3A-3B). As found, teriflunomide induced a reduction in the maximal firing frequency from 31.4±2.29 Hz to 17.2±3.34 after 4 hr of incubation, and to 16.25±3.06 Hz after 2 days of incubation (FIGS. 3B-3C). Input resistance was not affected by teriflunomide application (FIGS. 3D-3E).

[7] = test system: pilocarpine-induced seizures; test: pilocarpine model of TLE, behavioral seizure duration; format: in vivo; conditions: 15 mg/kg IP daily for 3 days, pilocarpine 330 mg/kg IP, C57 male mice, p=0.0157
Text: In order to determine the potential therapeutic benefit of DHODH inhibition for epilepsy treatment, we used the pilocarpine model of TLE, which is one of the most common mouse models that recapitulates many aspects of the human pathology. The pilocarpine model of TLE appears to be highly isomorphic with the human disease including induction of acute status epilepticus, and latent period followed by the appearance of spontaneous recurrent seizures, as well as the occurrence of widespread lesions in the CNS (Curia et al., 2008). These features make it highly suitable for testing the efficacy of antiepileptic drugs (Leite et al., 2002). We performed intraperitoneal (IP) daily injections of teriflunomide (15 mg/kg) or vehicle for 3 days, in 6-week-old male mice of C57 background. On the third day, mice were injected subcutaneously (SC) with 2 mg/kg scopolamine to prevent peripheral effects, and 30 min later with 330 mg/kg pilocarpine IP. […] Because seizure duration correlates with hippocampal pathology in the pilocarpine model (Mazzuferi et al., 2012), these in vivo results emphasize the potential of DHODH inhibition as a therapeutic approach in the most common form of epilepsy.

[8] = test system: CA3-CA1 hippocampal connections; test: in vivo fEPSP recording after ICV injection; conditions: ICV 100 mM/1 μl daily for 3 days, bursts of 3 stimuli at 50 Hz, anesthetized mice
Method: Finally, we used intracerebroventricular (ICV) injection of teriflunomide to test its effect on hippocampal synaptic plasticity in vivo. For this, we injected teriflunomide (100 mM/1 μl daily) for 3 consecutive days and then performed electrophysiological fEPSP recording in vivo in anesthetized (2% isoflurane) mice. The recording electrodes were placed in the CA1 stratum radiatum, while the stimulating electrode was paced at the Schaffer Collateral fibers. We examined how inhibition of DHODH in the brain affects short-term synaptic plasticity in the hippocampus evoked by high-frequency spike bursts.

[9] = test system: cultured hippocampal neurons; test: multi-electrode array (MEA) recording of spiking activity / mean firing rate; format: cell-based; conditions: for effect of teriflunomide on MFR in DHODH knockdown cultures: 50 μM teriflunomide in shDHODH-infected cultures
Text: In order to test how DHODH targeting affects neuronal activity, we examined the effect of the DHODH inhibitor teriflunomide on cultured hippocampal neurons grown on a multi-electrode chip (MEA) that allows a long-term monitoring of spiking activity from many neurons simultaneously (FIGS. 1A-1C).
In order to test the specificity of teriflunomide effect on firing rate, we used a lentiviral-based shRNA delivery system (shDHODH; TRCN0000294665, Sigma Aldrich) to knockdown DHODH expression in hippocampal cultures.
In order to test whether the change in MFR resulting from DHODH inhibition is induced by the reduction of available uridine (a precursor of pyrimidines) or results from a change in the mitochondrial function, we co-applied 100 μM uridine mono-phosphate with teriflunomide in MEA recordings.

SMILES: NCC(CC(=O)O)c1ccc(Cl)cc1 (stereo not drawn) [baclofen]
- MFR acutely after baclofen (hippocampal cultures [1]; 10 μM baclofen added in the presence of teriflunomide): 0.3678±0.08 Hz
- MFR stabilized over a 2-day period after baclofen (hippocampal cultures [1]; 10 μM baclofen in the presence of teriflunomide, 48 h): 2.00±0.35 Hz
- firing rate after baclofen alone (hippocampal cultures [2]): profound inhibition

SMILES: CC[C@@H](C(N)=O)N1CCCC1=O [levetiracetam]
- brain hyperactivity (AD mouse models): reduces
- cognitive impairments (AD mouse models): improves
- memory (hippocampus): improvement
- metabolic hyperactivity in the hippocampus (hippocampus): reduces

SMILES: C/C(O)=C(\C#N)C(=O)Nc1ccc(C(F)(F)F)cc1 [teriflunomide, (2Z)-2-cyano-3-hydroxy-N-[4-(trifluoromethyl)phenyl]but-2-enamide]
- decrease in mEPSC amplitude (hippocampal neurons [3]; 2 days teriflunomide incubation vs control): 26%
- mEPSC frequency (hippocampal neurons [3]; 2 days teriflunomide incubation, p=0.08): not significantly affected; also recorded: did not reach statistical significance
- I/E ratio (GI/GE per neuron) (hippocampal neurons [4]; 4 hr to 2 days of teriflunomide incubation): elevated and remained high; also recorded: significant and stable increase
- average integrated excitatory conductance (GE) (hippocampal neurons [4]; 2 days of teriflunomide incubation): remained lower for 2 days; also recorded: stable during 2 days of incubation
- average integrated excitatory conductance (GE) (hippocampal neurons [4]; after 4 hr of teriflunomide incubation): dramatic decrease
- integrated inhibitory conductance (GI) (hippocampal neurons [4]; after either 4 hr or 2 days of teriflunomide incubation): no significant change; also recorded: no significant reduction
- fEPSP amplitude (basal CA3-CA1 transmission) ([5]; 50 μM teriflunomide, 0.1 Hz stimulation): gradual reduction
- short-term synaptic facilitation (relative fEPSP amplitude within the burst) ([5]; bursts of 5 stimuli at 50 Hz, 30 min after teriflunomide): profoundly increased
- input resistance (Rin) (hippocampal neurons [6]): no change; also recorded: not affected
- behavioral seizure duration [7]: significantly reduces
- MFR, new lower baseline value (hippocampal cultures [1]; 12 hr (overnight) incubation with 50 μM teriflunomide, original baseline 4.30±0.0.44 Hz): 2.50±0.38 Hz
- short-term synaptic facilitation in vivo [8]: increase
- effect of teriflunomide on MFR in DHODH knockdown cultures [9]: did not produce long-term changes in MFR
- effect of teriflunomide on MFR in DHODH knockdown cultures ([9]; listed as Teriflunomide): did not have a significant effect
- neuronal mean firing rate (MFR) ([9]; 50 μM teriflunomide, after 4 h of application, baseline 3.95±0.27 Hz): 1.58±0.17 Hz
- stability of the lower MFR induced by teriflunomide ([9]; 50 μM teriflunomide, time following application): stable for 14 hr
- reduction in MFR with co-applied uridine ([9]; 100 μM uridine mono-phosphate co-applied with 50 μM teriflunomide, timescale of 2 days): does not occlude the reduction in maximum firing rate (MFR); also recorded: did not occlude the effect of teriflunomide on MFR; also recorded: did not occlude the reduction in MFR
